Test results reported in patent US20090123979A1, “Methods of reducing the inhibitory effect of a tannin on the enzymatic hydrolysis of cellulosic material” (Novozymes, Inc., priority 2007, published 2009).

B1: Aspergillus oryzae tannase: Aspergillus oryzae tannase (Novozymes A/S, Bagsværd, Denmark) (protein, listed as Aspergillus oryzae)
chain: MPSLRRLLPFLAAGSAALASQDTFQGKCTGFADKINLPNVRVNFVNYVPGGTNLSLPDNPTSCGTTSQVVSEDVCRIAMAVATSNSSEITLEAWLPQNYTGRFLSTGNGGLSGCIQYYDLAYTSGLGFATVGANSGHNGTSGEPFYHHPEVLEDFVHRSVHTGVVVGKQLTKLFYEEGFKKSYYLGCSTGGRQGFKSVQKYPNDFDGVVAGAPAFNMINLMSWSAHFYSITGPVGSDTYLSPDLWNITHKEILRQCDGIDGAEDGIIEDPSLCSPVLEAIICKPGQNTTECLTGKQAHTVREIFSPLYGVNGTLLYPRMQPGSEVMASSIMYNGQPFQYSADWYRYVVYENPNWDATKFSVRDAAVALKQNPFNLQTWDADISSFRKAGGKVLTYHGLMDQLISSENSKLYYARVAETMNVPPEELDEFYRFFQISGMAHCSGGDGAYGIGNQLVTYNDANPENNVLMAMVQWVEKGIAPETIRGAKFTNGTGSAVEYTRKHCRYPRRNVYKGPGNYTDENAWQCV

Legend:
[1] = system: T1, Cellulolytic Enzyme Composition #1; test: PCS hydrolysis by Cellulolytic Enzyme Composition #1 with added compounds; format: biochemical, Trichoderma reesei; details: for effect on hydrolysis of PCS by Cellulolytic Enzyme Composition #1: 1 mM each compound, 43.4 g PCS and 0.25 g enzyme per liter, pH 5.0, 50° C.; for loss in initial rate of PCS hydrolysis / loss in the extent of PCS hydrolysis at day 4: 50 g PCS, 0.25 g enzyme per liter, methyl gallate and ellagic acid 10 mM, tannic acid 1 mM
T1 construct: other: PASC hydrolysis; mean ± SD; 0.01 g enzyme; Dixon plot linear regression intercept (1/Rate); other: AVICEL; rate from hydrolysis difference (%) at 0 and 6 hours; rate from hydrolysis difference; fused on or other part: The A. oryzae beta-glucosidase is the mature chain secreted behind the Humicola insolens endoglucanase V signal peptide, which is cleaved off
Description: (§1) Corn stover was pretreated at the U.S. Department of Energy National Renewable Energy Laboratory (NREL), […], Colo., USA, using dilute sulfuric acid. The following conditions were used for the pretreatment: 1.4 wt % sulfuric acid at 195° C. for 4.5 minutes. According to limit digestion with excess cellulase enzymes, the water-insoluble solids in the pretreated corn stover (PCS) contained 59.5% cellulose. Prior to use, the PCS was washed with a large volume of deionized water until soluble acid and sugars were removed. The dry weight of the water-washed PCS was 19.16%.
(§2) The effect of a mixture of tannic acid, ellagic acid, epicatechin, and six lignin constituent compounds (4-hydroxyl-2-methylbenzoic acid, vanillin, coniferyl alcohol, coniferyl aldehyde, ferulic acid, and syringaldehyde) was determined on the hydrolysis of PCS by Cellulolytic Enzyme Composition #1 or Cellulolytic Enzyme Composition #2. […] Cellulolytic Enzyme Composition #1 or Cellulolytic Enzyme Composition #2 was added at 0.25 g per liter. Reactions without the addition of the compounds served as controls. The capped tubes were incubated at 50° C. in an INNOVA® 4080 incubator shaker (New Brunswick Scientific Co., Inc., Edison, N.J., USA) at 150 rpm.
(§3) Aliquots of the suspensions, sampled over time, were filtered by centrifugation using a 0.45 μm MULTISCREEN® HV membrane (Millipore, Billerica, Mass., USA) at 2000 rpm for 15 minutes using a SORVALL® RT7 centrifuge (Thermo Fisher Scientific, Waltham, Mass., USA). When not used immediately, the filtered aliquots were frozen at −20° C. Sugar concentrations of the samples diluted in 0.005 M H2SO4 were measured after elution by 0.005 M H2SO4 at a flow rate of 0.4 ml/minute from a 4.6×250 mm AMINEX® HPX-87H column (Bio-Rad, Hercules, Calif., USA) at 65° C. with quantitation by integration of glucose and cellobiose using refractive index detection (CHEMSTATION®, AGILENT® 1100 HPLC, Agilent Technologies, Santa Clara, Calif., USA) calibrated with standards of glucose and cellobiose. The resultant equivalents were used to calculate the percentage of cellulose conversion for each reaction.
(§4) The degree of cellulose conversion to glucose plus cellobiose sugars (conversion, %) was calculated using the following equation:
(§5) Conversion(%)=(glucose+cellobiose×1.053)(mg/ml)×100×162/cellulose(mg/ml)×180)=(glucose+cellobiose×1.053)(mg/ml)×100/(cellulose(mg/ml)×1.111)
(§6) In this equation the factor 1.111 reflects the weight gain in converting cellulose to glucose, and the factor 1.053 reflects the weight gain in converting cellobiose to glucose. Cellulose in PCS was determined by a limit digest of PCS to release glucose and cellobiose.
(§7) Example 30 was repeated except that each compound was tested separately. […] Reactions without the addition of each compound served as controls.
(§8) The effect of OPC or flavonol on the hydrolysis of PCS by Cellulolytic Enzyme Composition #1 or Cellulolytic Enzyme Composition #2 was determined according to the procedure described in Example 30. OPC and flavonol were present at a concentration of 1 mM. Reactions without the addition of the compounds served as controls.
Methyl gallate and ellagic acid were compared at 10 mM to 1 mM tannic acid in the hydrolysis of PCS by Cellulolytic Enzyme Composition #1.

[2] = system: T2, Cellulolytic Enzyme Composition #2; test: PCS hydrolysis by Cellulolytic Enzyme Composition #2 with added compounds; format: biochemical, Trichoderma reesei; details: 1 mM each compound; 43.4 g PCS and 0.25 g enzyme per liter, pH 5.0, 50° C.
T2 construct: Dixon plot linear regression intercept (1/Rate); other: PCS; rate from hydrolysis difference (%) at 0 and 5 hours; rate from hydrolysis difference (%); Ki (x-intercept of Dixon plot); other: PCS hydrolysis, Cellulolytic Enzyme Composition #2; OPC flavonol-equivalent; Ki expressed as galloyl constituents; oth; fused on or other part: In one component the Humicola insolens endoglucanase V (CEL45A) core is fused in front of the A. oryzae beta-glucosidase
Description: as §1, §2, §3, §4, §5, §6, §7, §8
(§9) The effective inhibitory concentration range for tannic acid and OPC was also determined by the “mini-scale” hydrolysis described in Example 30 with Cellulolytic Enzyme Composition #2. The concentration of tannic acid ranged from 0.1 mM to 1 mM, while the concentration of OPC ranged from 0.1 mM to 10 mM. Reactions without the addition of the tannic compounds served as controls.
(§10) However, prior to the addition of Cellulolytic Enzyme Composition #2, the mixture of PCS or OPC and tannic acid was treated with Aspergillus oryzae tannase (Novozymes A/S, Bagsværd, Denmark) at 10% of the final protein level for 30 minutes. Reactions without addition of the tannic acid, OPC, or tannase served as controls.

[3] = Tannase reduction of OPC inhibition of PCS hydrolysis by Cellulolytic Enzyme Composition #2; format: biochemical; details: 10 mM OPC; 43 g PCS per liter; tannase at 10% of final protein level for 30 minutes
Description: (§11) Tannase was evaluated for its ability to reduce the inhibitory effect of tannic acid on OPC on PCS hydrolysis by Cellulolytic Enzyme Composition #2.
as §10

[4] = Tannase reduction of tannic acid inhibition of PCS hydrolysis by Cellulolytic Enzyme Composition #1; format: biochemical; details: 1 mM tannic acid
Description: To reduce the inhibition, tannase was added at 12.5, 25, and 50 mg per liter (or 0.21, 0.42, and 0.85 μM).

[5] = Tannase reduction of tannic acid inhibition of PCS hydrolysis by Cellulolytic Enzyme Composition #2; format: biochemical; details: 1 mM tannic acid; 43 g PCS per liter; tannase at 10% of final protein level for 30 minutes
Description: as §11, §10

[6] = system: Cellulolytic Enzyme Composition #2; test: PCS hydrolysis by Cellulolytic Enzyme Composition #2 with added compounds; format: biochemical, Trichoderma reesei; details: tannase alone, in the absence of tannic acid or OPC
Description: as §1, §2, §3, §4, §5, §6, §7, §8, §9, §10

Molecule | effect on hydrolysis of PCS by Cellulolytic Enzyme Composition #1 [1] | loss in initial rate of PCS hydrolysis [1] [%] | loss in the extent of PCS hydrolysis at day 4 [1] [%] | other results
O=c1c(O)c(-c2ccccc2)oc2ccccc12 [flavonol] | not its constituent flavonol, was inhibitory | – | – | effect on hydrolysis of PCS by Cellulolytic Enzyme Composition #2 [2]: not inhibitory
O=c1oc2c(O)c(O)cc3c(=O)oc4c(O)c(O)cc1c4c23 [ellagic acid] | but not its constituent ellagic acid (FIG. 17C), significantly inhibited | ~30 | ~40 | –
COC(=O)c1cc(O)c(O)c(O)c1 [methyl gallate] | – | ~10 | ~10 | –
B1 | – | – | – | effect of tannase pretreatment on the inhibitory effect of OPC on Cellulolytic Enzyme Composition #2 [3]: significantly reduced; reduction of tannic acid inhibition ([4]; tannase at approximately 12 mg per liter): approximately 50%; reduction of tannic acid inhibition ([4]; tannase at approximately 25 mg per liter): ~100%; effect of tannase pretreatment on the inhibitory effect of tannic acid on Cellulolytic Enzyme Composition #2 [5]: significantly reduced; increase in hydrolysis extent of PCS by Cellulolytic Enzyme Composition #2 [6]: approximately 2%
